Ends that are not written are not given here. * marks the point of attachment. FITC = O=C1OC2(c3ccc(O)cc3Oc3cc(O)ccc32)c2ccc(NC(=S)*)cc21
Columns and labels:
CaCO2 cell monolayer = test: Permeability of a CaCO2 cell monolayer to a gliadin fragment; type: cell-based
Description: (§1) The inventors have discovered that peripheral blood mononuclear cells (PBMCs) secrete signals that increase epithelial monolayer permeability on response to stimulation with lipopolysaccharide […] and pepsin/trypsin treated gliadin (PTG). These secreted signals are present in PBMC culture supernatant, and they increase permeability of CaCO2 cell monolayers to Lucifer yellow when presented to the basolateral aspect of these cells. These permeability changes are inhibited by treatment of the cells with peptide permeability inhibitors of the invention (FIGS. 5A, 5B, 6A, 6B, 7A, 7B, 8A and 8B). The inventors have also discovered that specific peptides within the PTG mixture are capable of crossing epithelial cell monolayers in vitro, and that this peptide specific mechanism can be inhibited by peptide permeability inhibitors of the invention (FIGS. 3 and 4).

CaCO2 cells = test: Lucifer yellow permeability of CaCO2 cells exposed basolaterally to PBMC culture supernatants; type: cell-based; conditions: donors 00022, 00023, 00064, 00065; for Effect on baseline permeability to Lucifer yellow: control and untreated PBMC supernatant, measured after 72 hours; for Effect on permeability changes induced by LPS treated PBMC supernatant / Effect on permeability changes induced by PTG treated PBMC supernatant: Lucifer yellow measured after 72 hours
Experimental: After formation of tight junctions CaCO2 cells were exposed basolaterally to control supernatant (control), untreated PBMC supernatant (PBMC sup), LPS treated PBMC supernatant (PBMC-LPS) and PTG treated PBMC supernatant (PBMC-PTG). Lucifer yellow permeability was measured after 72 hours (day 3).
After formation of tight junctions CaCO2 cells were exposed basolaterally to PBMC supernatants as described above. […]
as §1

PBMCs = test: Cytokine expression in PBMCs treated with PTG or LPS (ELISA); type: cell-based, human; conditions: PTG 1 mg/ml or LPS 1 μg/ml
Experimental: PBMCs were suspended in RPMI medium supplemented with 5% heat inactivated human AB serum, and 2×10^5 cells were plated in each well of a 96 well plate. Cells were incubated at 37° C. with PTG (1 mg/ml) or LPS (1 μg/ml) in the presence or absence of test compounds being examined for the ability to suppress cytokine production. Supernatant samples were harvested following treatment, and cytokines were assayed by ELISA (R&D Systems).

intestinal tissue = conditions: ex vivo human tissue and mice; background section; cited from earlier work
[1] = inhibitor added apically after 48 hours (day 2)
[2] = inhibitor added apically on day 0

FITC-C6-PYPQPQLPY ({FITC-C6}-PYPQPQLPY) [gliadin peptide, FITC-labelled, reference compound]
Permeability of the monolayer (CaCO2 cell monolayer; FIG. 4, apical exposure of the monolayer to the gliadin peptide): increase in permeability

GGVLVQPG [SEQ ID NO:1]
Effect on increase in permeability to gliadin peptide PYPQPQLPY (SEQ ID NO:163) (CaCO2 cell monolayer; FIG. 3, apical exposure to gliadin peptide, apical treatment with inhibitor): blocked
Effect on increase in permeability induced by gliadin peptide (CaCO2 cell monolayer; FIG. 4, apical exposure to FITC-C6-PYPQPQLPY, 13-mer gliadin peptide SEQ ID NO:164 named in legend): blocked
Effect on baseline permeability to Lucifer yellow (CaCO2 cells; [1]): abolished
Effect on baseline permeability to Lucifer yellow (CaCO2 cells; [2]): abolished
Effect on permeability changes induced by LPS treated PBMC supernatant (CaCO2 cells; [1]): significantly reduced
Effect on permeability changes induced by PTG treated PBMC supernatant (CaCO2 cells; [1]): significantly reduced
Effect on permeability changes induced by LPS treated PBMC supernatant (CaCO2 cells; [2]): no significant effect
Effect on permeability changes induced by PTG treated PBMC supernatant (CaCO2 cells; [2]): no significant effect
Effect on expression of IL-6, IL-8, MIP-1α and Gro-α induced by LPS and PTG (PBMCs): not reduced
Effect on increased expression of GM-CSF and IL-16 induced by LPS and PTG (PBMCs): inhibited
Gliadin induced reduction in intestinal Rt (resistance) (intestinal tissue): inhibits
Peak of F-actin increment induced by gliadin (intestinal tissue): blocks

PYPQPQLPY (listed as Triticum sp.) [SEQ ID NO:163, gliadin peptide]
Permeability of the monolayer to the gliadin peptide (CaCO2 cell monolayer; FIG. 3, apical exposure of the monolayer to the gliadin peptide): increase in permeability
